Reference: publication PMC8050276, “Estradiol analogs attenuate autophagy, cell migration and invasion by direct and selective inhibition of TRPML1, independent of estrogen receptors” (Scientific Reports, 2021)

What was measured:
[1] = target: T1, hTPC2L11A/L12A-RFP (Homo sapiens, UniProt Q8NHX9, L11A/L12A); assay: Fluo-4 Ca2+ assay, HEK293 stably expressing hTPC2L11A/L12A-RFP, activated with TPC2-A1-N or TPC2-A1-P; format: cell-based; details: activated by either TPC2-A1-P or TPC2-A1-N
T1 construct: expressed in transfected cells

[2] = target: T2, TRPML1 (Mus musculus, UniProt Q99J21); assay: Endolysosomal patch-clamp, murine alveolar macrophages endogenously expressing TRPML1; format: cell-based; details: EDME 10 µM, ML-SA1 10 µM
T2 construct: TRPML1 endogenously expressed in mouse alveolar macrophages; endogenous in cells; host or cells: primary murine alveolar macrophages
Protocol: (§1) For whole-LE/LY manual patch-clamp recordings, cells were treated with 1 μM vacuolin-1 (> 2 h) at 37 °C and 5% CO2 and experiments performed as described previously[19],[25]. Compound was washed out before patch-clamp experimentation. Currents were recorded using an EPC-10 patch-clamp amplifier (HEKA, Lambrecht, Germany) and PatchMaster acquisition software (https://www.heka.com/). Data were digitized at 40 kHz and filtered at 2.8 kHz. Fast and slow capacitive transients were cancelled by the compensation circuit of the EPC-10 amplifier. All recordings were obtained at room temperature and were analyzed using PatchMaster acquisition software (https://www.heka.com/) and OriginPro 6.1 (https://www.originlab.com/). […] For all experiments, salt-agar bridges were used to connect the reference Ag–AgCl wire to the bath solution to minimize voltage offsets. Liquid junction potential was corrected. For the application of the small molecule inhibitors/flavonoids, cytoplasmic solution was completely exchanged by cytoplasmic solution containing compound. The current amplitudes at − 100 mV were extracted from individual ramp current recordings. Unless otherwise stated, cytoplasmic solution contained 140 mM K-MSA, 5 mM KOH, 4 mM NaCl, 0.39 mM CaCl2, 1 mM EGTA and 10 mM HEPES (pH was adjusted with KOH to 7.2). […]

[3] = tested on: MDA-MB-231 cells; assay: Wound healing/migration scratch assay; format: cell-based, human; details: various concentrations, o/n
Protocol: Wound healing assay was performed using 12-well plates (Sarstedt) at full confluency. Cells were incubated overnight (serum-free), and a scratch was performed using a yellow pipet tip. Pictures were taken at 0 h and after over night (o/n) incubation using an inverted microscope (Leica DM IL LED) and using a microscope camera (Leica DFC 3000 G).

[4] = target: T3, TRPML1 (Homo sapiens, UniProt Q9GZU1); assay: Endolysosomal patch-clamp, endo-lysosomes from MDA-MB-231 cells; format: cell-based; details: activation with ML-SA1
T3 construct: vacuolin-enlarged endo-lysosomes isolated from WT and KO1 MDA-MB-231 cells; endogenous in cells; host or cells: MDA-MB-231
Protocol: as §1

[5] = tested on: TRPC3, 4, 5, 6, and 7; TRPM2, 3, and 8; TRPV1, 2, 3, and 4; assay: Fluo-4 counter screen against other TRP channels stably expressed in HEK293; format: cell-based; details: most channels; activated with known ligands
[6] = tested on: MDA-MB-231 cells; assay: Invasion assay, Matrigel-coated transwell chambers; format: cell-based, human; details: various concentrations, 4 h and o/n
Protocol: For invasion measurements transwell chambers in 24-well permeable support plates (Corning, #3421) were coated with Corning Matrigel basement membrane matrix (Corning, #354234) for 1.5 h. A total of 4 × 104 MDA-MB-231 WT and TRPML1 KO cells were seeded on top of the chambers in serum-free medium, and direct stimulation with EDME was performed. The lower compartment contained the chemotactic gradient, medium with 10% FBS. Cells were allowed to migrate for 4 h and o/n, and were then fixed and stained with crystal violet containing methanol. Non-invaded cells were removed with Q-tips and pictures were taken of the bottom side of the membrane using an inverted microscope (Olympus CKX41) and an Olympus SC50 camera (Olympus). The number of invaded cells was quantified using ImageJ 1.52a software.

[7] = target: T4, hTRPML1 WT (Homo sapiens, UniProt Q9GZU1); assay: Endolysosomal patch-clamp, vacuolin-enlarged endo-lysosomes from hTRPML1 WT expressing HEK293 cells; format: cell-based; details: activation with ML-SA1 (10 µM) or PI(3,5)P2 (1 µM), luminal pH 4.6
T4 construct: expressed in transfected cells; host or cells: HEK293
Protocol: as §1

T2 sequence (Q99J21 whole entry): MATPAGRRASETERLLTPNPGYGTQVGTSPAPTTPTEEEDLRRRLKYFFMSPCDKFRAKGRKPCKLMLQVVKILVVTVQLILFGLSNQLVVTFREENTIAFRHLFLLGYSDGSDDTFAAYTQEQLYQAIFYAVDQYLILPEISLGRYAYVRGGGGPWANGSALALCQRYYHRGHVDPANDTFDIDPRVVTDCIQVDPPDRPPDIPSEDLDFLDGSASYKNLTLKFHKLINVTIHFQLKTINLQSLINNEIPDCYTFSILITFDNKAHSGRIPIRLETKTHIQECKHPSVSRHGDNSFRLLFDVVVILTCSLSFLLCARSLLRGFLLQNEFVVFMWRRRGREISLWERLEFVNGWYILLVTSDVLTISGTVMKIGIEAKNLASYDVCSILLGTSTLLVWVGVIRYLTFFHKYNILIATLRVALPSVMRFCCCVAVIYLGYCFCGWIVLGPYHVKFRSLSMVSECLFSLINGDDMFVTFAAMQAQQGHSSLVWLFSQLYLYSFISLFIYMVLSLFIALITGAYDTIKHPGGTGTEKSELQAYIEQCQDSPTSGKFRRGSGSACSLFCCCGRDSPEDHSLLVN
T1 sequence (Q8NHX9 whole entry L11A/L12A): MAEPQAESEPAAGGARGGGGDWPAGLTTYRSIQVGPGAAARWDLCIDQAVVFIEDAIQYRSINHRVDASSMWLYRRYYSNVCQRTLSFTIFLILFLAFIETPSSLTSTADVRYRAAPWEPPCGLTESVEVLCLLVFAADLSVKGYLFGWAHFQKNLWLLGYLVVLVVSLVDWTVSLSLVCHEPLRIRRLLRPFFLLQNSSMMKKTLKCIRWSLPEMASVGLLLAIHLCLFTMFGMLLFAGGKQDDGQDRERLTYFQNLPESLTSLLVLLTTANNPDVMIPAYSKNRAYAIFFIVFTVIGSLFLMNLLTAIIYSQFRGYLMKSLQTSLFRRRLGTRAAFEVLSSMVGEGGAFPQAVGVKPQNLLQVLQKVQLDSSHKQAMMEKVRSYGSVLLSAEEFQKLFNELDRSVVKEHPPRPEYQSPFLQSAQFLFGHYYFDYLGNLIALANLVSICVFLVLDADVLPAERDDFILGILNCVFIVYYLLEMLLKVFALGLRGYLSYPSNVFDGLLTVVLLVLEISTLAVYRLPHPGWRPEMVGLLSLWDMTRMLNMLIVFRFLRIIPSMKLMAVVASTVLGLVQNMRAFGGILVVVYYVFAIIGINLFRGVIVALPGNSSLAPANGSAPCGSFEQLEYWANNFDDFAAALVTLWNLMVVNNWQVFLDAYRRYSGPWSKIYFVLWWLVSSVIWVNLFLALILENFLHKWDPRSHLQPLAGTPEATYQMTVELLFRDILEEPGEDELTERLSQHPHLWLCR
T4 sequence (Q9GZU1 whole entry): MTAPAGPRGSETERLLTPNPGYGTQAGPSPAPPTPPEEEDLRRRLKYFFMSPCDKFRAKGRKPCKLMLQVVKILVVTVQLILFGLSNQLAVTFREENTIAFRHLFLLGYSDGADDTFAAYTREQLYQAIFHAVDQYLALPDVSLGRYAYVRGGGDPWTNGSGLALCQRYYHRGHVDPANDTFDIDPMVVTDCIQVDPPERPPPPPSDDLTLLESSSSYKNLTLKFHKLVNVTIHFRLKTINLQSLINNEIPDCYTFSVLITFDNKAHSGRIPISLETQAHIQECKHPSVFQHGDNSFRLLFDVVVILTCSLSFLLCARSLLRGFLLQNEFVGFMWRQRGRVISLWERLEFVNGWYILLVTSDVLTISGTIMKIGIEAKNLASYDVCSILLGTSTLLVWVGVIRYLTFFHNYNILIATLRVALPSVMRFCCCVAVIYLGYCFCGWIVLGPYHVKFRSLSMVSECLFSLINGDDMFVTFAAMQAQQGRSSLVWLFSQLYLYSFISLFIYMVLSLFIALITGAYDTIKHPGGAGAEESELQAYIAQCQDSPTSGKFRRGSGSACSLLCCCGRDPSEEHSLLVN
T3 sequence (Q9GZU1 whole entry): as above

COc1ccc2c(c1)CC[C@@H]1[C@@H]2CC[C@]2(C)[C@@H](O)CC[C@@H]12 [EDME, 17β-estradiol methyl ether]
IC50 at TPC2 [1]: no meaningful IC50s
inhibition of endogenous TRPML1 in alveolar macrophages [2]: inhibition of TRPML1 activation
migration of MDA-MB-231 cells [3]: reduced significantly
inhibition of TRPML1 activation in MDA-MB-231 endo-lysosomes [4]: inhibits TRPML1 activation
IC50 at other TRP channels [5]: no meaningful IC50s
invasion of MDA-MB-231 cells [6]: significantly reduced
inhibition of WT hTRPML1 current, endolysosomal patch-clamp [7]: inhibitory effect
